Source: patent US20200239969A1, “METHODS AND COMPOSITIONS FOR USE OF TREX2 AS DIAGNOSTIC AND PROGNOSTIC MARKER FOR CANCER” (THE BOARD OF REGENTS OF THE UNIVERSITY OF TEXAS SYSTEM, priority 2017, published 2020)

Columns and labels:
[1] = test system: mouse embryonic stem (ES) cells; test: reduction of mutations in mouse ES cells by screening hits; type: cell-based; conditions: five of nineteen screening hits
Excerpt: Assays as described here were used to screen a Chembridge Diverset library (30,000 compounds). […] These small molecules are: 4-benzoyl-2-methyphenyl (2-nitrophenoxy) acetate; N-benzyl-2-([bis(furan-2-yl)-1,2,4-triazin-3-yl] sulfanyl) acetamide; 6-(benzylcarbamoyl)-1-methycyclohex-3-ene-1-carboxylic acid; 8-(phenylamino)naphthalene-1-sulfonic acid; and benzyl 6-(furan-2-yl)-3-methyl-4-oxo-4,5,6,7-tetrahydro-1H-indole-2-carboxylate. […] TX2Is appear to be nontoxic to cells and TREX2-deletion was asymptomatic for >50% of life span.

msh2^−/− cells = test: puro(A)10 polymerase slippage assay, puromycin resistant colonies; type: cell-based, mouse; conditions: puro(A)10 reporter, 10 μM TREX2 inhibitor, colonies counted about day 10, DMSO versus compounds p<0.02, FIGS. 8B, 8C
[2] = test system: RAD51^K133A expressing cells; test: miniHPRT loss of heterozygosity (LOH) assay, TG-resistant cells; type: cell-based, mouse; conditions: control versus compounds p<0.018, average of three replicates, FIG. 8A
Method: To evaluate loss of heterozygosity, the loss of function (LOF) of miniHPRT was measured by survival in 6-TG. ES cells were grown in 1× hypoxanthine, aminopterin, thymidine (HAT) for at least 4 days followed by growth in 1× HT for 2 days and then no selection for 1 day. Cells were counted and seeded at 2×10^5 cells/10 cm feeder plates (3 plates) and selected in 10 μM 6-thioguanine (6-TG). For plating efficiency, 2000 cells were seeded on two wells of 6-well feeder plate. Eight days after plating, the number of 6-TG resistant colonies was counted. […] That is >159-fold difference. The average of three biological replicates are presented (p<0.0001 for lane 4 versus lanes 5 and 6, unpaired student T test). Deletion of TREX2 in HsRAD51^K133A expressing cells reduces loss of heterozygosity to levels lower than in wild type cells. Therefore, TREX2 caused greatest loss of heterozygosity and gross chromosomal rearrangements in HR-defective cells.
TREX2-deletion also imparts a synthetic phenotype in HR-mutant and MMR-mutant cells to hydroxyurea (HU) and camptothecin (CPT). Both CPT and HU stall RFs and are used for cancer therapy. CPT binds type 1 […] to DNA to cause a break when a replication fork collides into it while HU inhibits ribonucleotide reductase to deplete nucleotides. Therefore, TX2Is enhance cytotoxicity of chemotherapeutic agents in cancer cells while protecting the patient from mutations to reduce the risk of therapy-related disease. RAD51^K133A was expressed in mouse ES cells to negatively alter HR. In these HR defective cells, TREX2-deletion decreased survival to camptothecin and reduced loss of heterozygosity (LOH) to levels lower than cells expressing RAD51 wild type (WT) and TREX2 WT. LOH is loss of miniHPRT, which can be scored as resistance to 6-thioguanine (TG). FIGS. 5A and 5B are graphical representations of the effects of TREX2-deletions measured as survival fractions. […] The average of three biological replicates are presented.
Compounds #1, 6, and 10 reduce LOH in RAD51^K133A expressing cells using miniHPRT. […]

ES cells = test: response of ES cells to hydroxyurea (RPA32 phosphorylation, chromatid breaks)

SMILES	effect on mutations in mouse ES cells [1]	spontaneous polymerase slippage (fraction of puromycin resistant cells) (msh2^−/− cells)	LOH (percentage of TG-resistant cells) [2]	chromatid breaks (ES cells; high HU dose)	DNA damage response (RPA32 phosphorylation) (ES cells; high HU dose (4 mM, 5 hours))	DNA damage response (RPA32 phosphorylation) (ES cells; low HU dose (0.5 mM, 1.5 hours))
CC1(C(=O)O)CC=CCC1C(=O)NCc1ccccc1 (stereo not drawn) [Compound 11, 6-(benzylcarbamoyl)-1-methycyclohex-3-ene-1-carboxylic acid]	reduce a range of mutations	reduce spontaneous polymerase slippage	–	–	–	–
Cc1c(C(=O)OCc2ccccc2)[nH]c2c1C(=O)CC(c1ccco1)C2 (stereo not drawn) [benzyl 6-(furan-2-yl)-3-methyl-4-oxo-4,5,6,7-tetrahydro-1H-indole-2-carboxylate]	reduce a range of mutations	–	–	–	–	–
Cc1cc(C(=O)c2ccccc2)ccc1OC(=O)COc1ccccc1[N+](=O)[O-] [Compound 1, 4-benzoyl-2-methyphenyl (2-nitrophenoxy) acetate]	reduce a range of mutations	reduce spontaneous polymerase slippage	reduce LOH	–	–	–
O=C(CSc1nnc(-c2ccco2)c(-c2ccco2)n1)NCc1ccccc1 [Compound 10, N-benzyl-2-([bis(furan-2-yl)-1,2,4-triazin-3-yl]sulfanyl) acetamide]	reduce a range of mutations	reduce spontaneous polymerase slippage	reduce LOH	–	–	–
NC(=O)NO [HU, hydroxyurea]	–	–	–	produced more chromatid breaks	induced both an ATR and a DNA-PKCS response	induced an ATR response
O=S(=O)(O)c1cccc2cccc(Nc3ccccc3)c12 [Compound 6, 8-(phenylamino)naphthalene-1-sulfonic acid]	reduce a range of mutations	reduce spontaneous polymerase slippage	reduce LOH	–	–	–
